Results on 4 compounds are retold here after patent publication US20250326753A1, “DUAL CXCR4-BTK INHIBITORS” (X4 Pharmaceuticals, Inc., priority 2022, published 2025).

Molecules are shown by their SMILES. Like-named read-outs stand apart in the source and are kept apart here.

Format in all cases: biochemical
Assay [1] addresses T1, INSRR (Homo sapiens, UniProt P14616).
T1 construct: purchased Reaction Biology Europe GmbH
The assay can be described thus: PanQinase kinase panel: INSRR. As to conditions: read-out: INHIBITORY EFFECT @ 1 uM: INSRR. The procedure:
(§1) Screening procedures were performed in accordance with the company's on-line protocol [accessed on-line Mar.
(§2) For each kinase, the median value of the cpm of three wells was defined as “low control” (n=3). This value reflects unspecific binding of radioactivity to the plate in the absence of a protein kinase but in the presence of the substrate. Additionally, for each kinase the median value of the cpm of three other wells was taken as the “high control,” i.e. full activity in the absence of any inhibitor (n=3). The difference between high and low control of each enzyme was taken as 100% activity.
(§3) As part of the data evaluation the low control of each kinase was subtracted from the high control value as well as from their corresponding “compound values”. The residual activity (in %) for each compound well was calculated by using the following formula: Res. Activity (%)=100×[(signal of compound−low control)/(high control−low control)].

In assay [2] the target is T2, MKK6 SDTD (Homo sapiens, UniProt P52564, S207D/T211D).
T2 construct: purchased Reaction Biology Europe GmbH
T2 sequence (P52564 1-334 S207D/T211D): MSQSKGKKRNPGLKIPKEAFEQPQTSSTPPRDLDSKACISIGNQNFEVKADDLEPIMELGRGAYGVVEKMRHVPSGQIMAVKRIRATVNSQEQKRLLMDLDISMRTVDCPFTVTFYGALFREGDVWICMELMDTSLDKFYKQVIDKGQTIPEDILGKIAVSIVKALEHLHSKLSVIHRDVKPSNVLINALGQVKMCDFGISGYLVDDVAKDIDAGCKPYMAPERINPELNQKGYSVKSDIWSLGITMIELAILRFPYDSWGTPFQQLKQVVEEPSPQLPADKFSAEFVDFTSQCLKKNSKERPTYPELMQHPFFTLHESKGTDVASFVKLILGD
The assay can be described thus: PanQinase kinase panel: MKK6 SDTD. As to conditions: read-out: INHIBITORY EFFECT @ 1 uM: MKK6 SDTD. The procedure:
as §1, §2, §3

The target in assay [3] is T3, CSK (Homo sapiens, UniProt P41240).
T3 construct: purchased Reaction Biology Europe GmbH
Put plainly: PanQinase kinase panel: CSK. As to conditions: read-out: INHIBITORY EFFECT @ 1 uM: CSK. The procedure: as §1, §2, §3

Assay [4] concerns the target T4, ARAF YDYD (Homo sapiens, UniProt P10398, Y301D/Y302D).
T4 construct: purchased Reaction Biology Europe GmbH
T4 sequence (P10398 1-606 Y301D/Y302D): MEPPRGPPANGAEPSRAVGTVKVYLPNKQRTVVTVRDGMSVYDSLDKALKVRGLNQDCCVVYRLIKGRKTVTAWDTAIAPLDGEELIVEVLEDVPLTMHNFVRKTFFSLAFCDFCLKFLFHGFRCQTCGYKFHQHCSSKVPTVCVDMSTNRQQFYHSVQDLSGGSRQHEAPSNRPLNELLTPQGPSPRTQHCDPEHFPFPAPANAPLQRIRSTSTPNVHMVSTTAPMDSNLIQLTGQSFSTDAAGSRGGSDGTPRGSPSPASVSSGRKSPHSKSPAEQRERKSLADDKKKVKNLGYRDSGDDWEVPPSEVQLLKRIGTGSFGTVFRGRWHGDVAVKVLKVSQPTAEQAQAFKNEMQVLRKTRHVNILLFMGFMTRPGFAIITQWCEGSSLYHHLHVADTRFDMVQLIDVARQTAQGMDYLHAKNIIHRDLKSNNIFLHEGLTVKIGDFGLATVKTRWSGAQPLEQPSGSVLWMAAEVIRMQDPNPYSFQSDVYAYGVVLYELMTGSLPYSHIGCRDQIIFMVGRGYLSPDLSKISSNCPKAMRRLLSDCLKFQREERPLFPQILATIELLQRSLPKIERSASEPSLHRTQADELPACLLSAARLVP
The assay can be described thus: PanQinase kinase panel: ARAF YDYD. As to conditions: read-out: INHIBITORY EFFECT @ 1 uM: ARAF YDYD. The procedure:
as §1, §2, §3

Assay [5] addresses T5, LYN (Homo sapiens, UniProt P07948).
T5 construct: purchased Reaction Biology Europe GmbH
Put plainly: PanQinase kinase panel: LYN. As to conditions: read-out: INHIBITORY EFFECT @ 1 uM: LYN. The procedure: as §1, §2, §3

Assay [6] concerns the target BTK (Homo sapiens, UniProt Q06187). The assay can be described thus: PanQinase kinase panel: BTK. On the set-up: purchased Reaction Biology Europe GmbH. The procedure: as §1, §2
(§4) As part of the data evaluation the low control of each kinase was subtracted from the high control value as well as from their corresponding “compound values”.

The target in assay [7] is T6, TEC (Homo sapiens, UniProt P42680).
T6 construct: purchased Reaction Biology Europe GmbH
T6 sequence (P42680 1-631): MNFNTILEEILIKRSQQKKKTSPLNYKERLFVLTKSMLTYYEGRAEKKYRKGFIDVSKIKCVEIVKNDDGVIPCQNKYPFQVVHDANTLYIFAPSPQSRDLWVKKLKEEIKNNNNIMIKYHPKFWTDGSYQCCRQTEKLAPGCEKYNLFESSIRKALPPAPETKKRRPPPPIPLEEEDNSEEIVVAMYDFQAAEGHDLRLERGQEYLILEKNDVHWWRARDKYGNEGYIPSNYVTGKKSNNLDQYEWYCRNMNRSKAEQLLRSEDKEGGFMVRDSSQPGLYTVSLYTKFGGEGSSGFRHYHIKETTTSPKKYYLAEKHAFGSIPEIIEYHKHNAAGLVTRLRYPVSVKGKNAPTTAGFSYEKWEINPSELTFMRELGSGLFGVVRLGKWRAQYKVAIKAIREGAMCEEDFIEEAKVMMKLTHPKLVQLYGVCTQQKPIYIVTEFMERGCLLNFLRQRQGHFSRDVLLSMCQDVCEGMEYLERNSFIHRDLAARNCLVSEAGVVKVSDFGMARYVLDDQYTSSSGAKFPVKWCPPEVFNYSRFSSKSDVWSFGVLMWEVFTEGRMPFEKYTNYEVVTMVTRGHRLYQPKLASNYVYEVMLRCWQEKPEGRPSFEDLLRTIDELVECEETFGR
The assay can be described thus: PanQinase kinase panel: TEC. As to conditions: for inhibition at 1 µM: read-out: INHIBITORY EFFECT @ 1 uM: TEC. The procedure:
as §1, §2, §4

In assay [8] the target is T7, FRK (Homo sapiens, UniProt P42685).
T7 construct: purchased Reaction Biology Europe GmbH
Put plainly: PanQinase kinase panel: FRK. As to conditions: read-out: INHIBITORY EFFECT @ 1 uM: FRK. The procedure: as §1, §2, §3

Assay [9] deals with T8, RET (Homo sapiens, UniProt P07949).
T8 construct: purchased Reaction Biology Europe GmbH
Put plainly: PanQinase kinase panel: RET. As to conditions: read-out: INHIBITORY EFFECT @ 1 uM: RET. The procedure:
as §1, §2, §3

For assay [10], the target named is T9, KIT (Homo sapiens, UniProt P10721).
T9 construct: purchased Reaction Biology Europe GmbH
The assay can be described thus: PanQinase kinase panel: KIT. As to conditions: read-out: INHIBITORY EFFECT @ 1 uM: KIT. The procedure:
as §1, §2, §3

The mark [11] stands for this setting: read-out: INHIBITORY EFFECT @ 1 uM: BTK.

T3 sequence (P41240 whole entry): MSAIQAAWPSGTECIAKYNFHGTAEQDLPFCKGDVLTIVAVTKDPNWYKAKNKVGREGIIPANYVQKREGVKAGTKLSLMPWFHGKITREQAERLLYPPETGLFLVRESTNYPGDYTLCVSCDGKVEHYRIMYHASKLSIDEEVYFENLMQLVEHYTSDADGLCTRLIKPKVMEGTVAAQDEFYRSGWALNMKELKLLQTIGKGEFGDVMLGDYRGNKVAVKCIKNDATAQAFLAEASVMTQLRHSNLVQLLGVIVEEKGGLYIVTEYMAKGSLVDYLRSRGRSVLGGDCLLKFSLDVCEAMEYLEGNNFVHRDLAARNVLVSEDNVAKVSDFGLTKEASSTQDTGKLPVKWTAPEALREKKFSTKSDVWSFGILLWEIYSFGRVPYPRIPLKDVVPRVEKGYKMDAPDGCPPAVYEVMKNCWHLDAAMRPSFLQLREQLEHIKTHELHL
T7 sequence (P42685 whole entry): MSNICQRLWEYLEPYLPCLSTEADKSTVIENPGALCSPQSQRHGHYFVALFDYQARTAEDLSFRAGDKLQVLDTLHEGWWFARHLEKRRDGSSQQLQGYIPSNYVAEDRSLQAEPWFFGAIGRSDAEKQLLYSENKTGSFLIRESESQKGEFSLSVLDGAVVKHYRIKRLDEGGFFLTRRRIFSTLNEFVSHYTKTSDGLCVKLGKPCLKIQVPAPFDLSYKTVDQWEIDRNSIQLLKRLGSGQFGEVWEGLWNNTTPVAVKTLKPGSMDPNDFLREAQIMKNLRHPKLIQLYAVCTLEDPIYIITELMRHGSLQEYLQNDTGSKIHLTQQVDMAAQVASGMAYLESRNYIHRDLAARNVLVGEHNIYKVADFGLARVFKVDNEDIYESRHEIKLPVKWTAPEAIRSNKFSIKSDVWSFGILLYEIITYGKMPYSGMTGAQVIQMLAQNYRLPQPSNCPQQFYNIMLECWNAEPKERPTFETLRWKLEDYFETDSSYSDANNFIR
T5 sequence (P07948 whole entry): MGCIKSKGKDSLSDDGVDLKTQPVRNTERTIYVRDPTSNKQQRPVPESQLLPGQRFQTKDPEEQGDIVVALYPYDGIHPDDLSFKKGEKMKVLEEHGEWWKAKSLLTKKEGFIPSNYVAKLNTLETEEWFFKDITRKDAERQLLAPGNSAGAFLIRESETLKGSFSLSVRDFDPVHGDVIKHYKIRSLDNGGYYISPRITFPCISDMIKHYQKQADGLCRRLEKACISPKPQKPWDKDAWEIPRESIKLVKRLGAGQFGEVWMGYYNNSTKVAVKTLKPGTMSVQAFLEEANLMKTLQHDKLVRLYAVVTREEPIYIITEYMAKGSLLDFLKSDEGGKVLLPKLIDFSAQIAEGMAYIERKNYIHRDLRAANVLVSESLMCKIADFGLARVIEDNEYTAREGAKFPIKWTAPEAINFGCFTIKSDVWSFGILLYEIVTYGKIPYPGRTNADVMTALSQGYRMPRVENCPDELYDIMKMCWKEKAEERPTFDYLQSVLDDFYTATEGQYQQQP
Chain of BTK (Q06187 whole entry): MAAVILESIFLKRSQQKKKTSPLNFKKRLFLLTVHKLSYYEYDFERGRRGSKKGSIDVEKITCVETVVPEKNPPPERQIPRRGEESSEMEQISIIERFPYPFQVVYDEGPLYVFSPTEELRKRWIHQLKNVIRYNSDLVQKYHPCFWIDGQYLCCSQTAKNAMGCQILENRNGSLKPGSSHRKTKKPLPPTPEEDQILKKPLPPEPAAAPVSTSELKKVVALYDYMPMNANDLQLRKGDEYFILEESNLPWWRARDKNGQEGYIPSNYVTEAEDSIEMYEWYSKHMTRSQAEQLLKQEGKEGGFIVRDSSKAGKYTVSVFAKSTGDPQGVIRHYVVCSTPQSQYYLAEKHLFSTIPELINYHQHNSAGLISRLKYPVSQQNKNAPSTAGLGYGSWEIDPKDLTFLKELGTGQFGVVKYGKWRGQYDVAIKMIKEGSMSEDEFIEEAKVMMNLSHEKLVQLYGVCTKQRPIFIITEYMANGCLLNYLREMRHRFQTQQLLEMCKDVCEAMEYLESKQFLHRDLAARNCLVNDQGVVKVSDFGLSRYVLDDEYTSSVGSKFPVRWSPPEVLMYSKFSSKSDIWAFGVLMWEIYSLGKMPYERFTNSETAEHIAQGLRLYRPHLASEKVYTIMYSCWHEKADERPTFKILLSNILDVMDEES
T8 sequence (P07949 29-1114): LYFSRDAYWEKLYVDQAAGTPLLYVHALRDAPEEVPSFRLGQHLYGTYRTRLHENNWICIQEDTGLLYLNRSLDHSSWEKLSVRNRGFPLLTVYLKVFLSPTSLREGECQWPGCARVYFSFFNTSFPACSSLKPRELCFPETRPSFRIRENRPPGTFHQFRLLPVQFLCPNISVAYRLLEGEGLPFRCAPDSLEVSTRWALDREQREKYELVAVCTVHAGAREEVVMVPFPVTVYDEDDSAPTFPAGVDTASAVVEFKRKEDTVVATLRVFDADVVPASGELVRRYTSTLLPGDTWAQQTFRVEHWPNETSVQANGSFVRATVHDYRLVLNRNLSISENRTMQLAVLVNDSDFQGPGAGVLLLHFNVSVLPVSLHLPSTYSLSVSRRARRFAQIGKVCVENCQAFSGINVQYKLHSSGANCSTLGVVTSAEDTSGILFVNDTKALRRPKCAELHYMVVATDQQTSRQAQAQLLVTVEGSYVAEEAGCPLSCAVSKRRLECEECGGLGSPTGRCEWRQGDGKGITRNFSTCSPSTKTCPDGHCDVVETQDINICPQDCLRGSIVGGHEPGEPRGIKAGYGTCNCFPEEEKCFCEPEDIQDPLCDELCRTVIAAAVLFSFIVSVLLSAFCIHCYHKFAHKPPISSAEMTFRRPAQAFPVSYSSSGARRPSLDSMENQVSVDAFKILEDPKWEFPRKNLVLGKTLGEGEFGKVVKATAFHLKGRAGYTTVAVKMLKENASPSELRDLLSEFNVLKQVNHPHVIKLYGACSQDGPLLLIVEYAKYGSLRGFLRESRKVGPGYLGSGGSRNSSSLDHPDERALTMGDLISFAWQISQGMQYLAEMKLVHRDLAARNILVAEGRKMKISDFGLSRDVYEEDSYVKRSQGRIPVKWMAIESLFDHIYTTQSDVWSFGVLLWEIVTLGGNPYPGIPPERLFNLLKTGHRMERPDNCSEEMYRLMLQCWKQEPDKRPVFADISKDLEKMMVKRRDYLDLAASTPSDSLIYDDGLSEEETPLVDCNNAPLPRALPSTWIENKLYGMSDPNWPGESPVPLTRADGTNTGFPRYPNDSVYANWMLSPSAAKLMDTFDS
T9 sequence (P10721 26-976): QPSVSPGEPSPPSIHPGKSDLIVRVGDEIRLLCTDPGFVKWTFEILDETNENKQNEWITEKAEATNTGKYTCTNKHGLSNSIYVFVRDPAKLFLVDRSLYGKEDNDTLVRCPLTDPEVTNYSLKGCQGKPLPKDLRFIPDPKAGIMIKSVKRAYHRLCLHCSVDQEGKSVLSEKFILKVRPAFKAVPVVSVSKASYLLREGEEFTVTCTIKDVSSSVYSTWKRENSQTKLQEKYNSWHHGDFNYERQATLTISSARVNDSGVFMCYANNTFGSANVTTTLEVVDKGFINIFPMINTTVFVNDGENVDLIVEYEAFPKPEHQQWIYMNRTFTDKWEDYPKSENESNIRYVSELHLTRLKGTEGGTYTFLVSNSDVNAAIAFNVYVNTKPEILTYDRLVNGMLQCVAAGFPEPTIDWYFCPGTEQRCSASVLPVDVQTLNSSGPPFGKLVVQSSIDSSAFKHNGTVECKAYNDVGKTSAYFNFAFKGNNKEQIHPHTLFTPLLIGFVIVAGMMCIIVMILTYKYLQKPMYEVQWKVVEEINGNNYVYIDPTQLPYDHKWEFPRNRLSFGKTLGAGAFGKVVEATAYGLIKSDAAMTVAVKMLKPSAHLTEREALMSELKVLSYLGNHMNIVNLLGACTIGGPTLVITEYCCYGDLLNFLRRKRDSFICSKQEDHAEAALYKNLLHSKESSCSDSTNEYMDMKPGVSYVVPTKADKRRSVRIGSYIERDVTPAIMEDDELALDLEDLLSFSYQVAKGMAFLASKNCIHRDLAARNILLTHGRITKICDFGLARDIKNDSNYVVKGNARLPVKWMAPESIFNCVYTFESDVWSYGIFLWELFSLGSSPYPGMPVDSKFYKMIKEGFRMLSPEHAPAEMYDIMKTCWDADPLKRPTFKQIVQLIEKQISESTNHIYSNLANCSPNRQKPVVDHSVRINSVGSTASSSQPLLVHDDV

On to `O=C(c1ccc(Oc2ccccc2)cc1Cl)c1c[nH]c2ncnc(N[C@@H]3CC[C@@H](CO)OC3)c12` [ARQ-531, (2-chloro-4-phenoxyphenyl) (4-(((3R,6S)-6-(hydroxymethyl)tetrahydro-2H-pyran-3-yl)amino)-7H-pyrrolo[2,3-d]pyrimidin-5-yl) methanone], for which the inhibition at 1 µM in [1] fell in the range of 90 to 100%; in assay [2], 90 to 100%; in assay [3], 90 to 100%; in assay [4], 70 to 89%; in assay [5] it was 70 to 89%; in assay [6] (setting [11]), 90 to 100%. The inhibition at 1 µM in assay [7] lay within 90 to 100%; in assay [8] it was 70 to 89%; in [9], 90 to 100%; in assay [10], 90 to 100%.
For `Cc1cccnc1[C@H]1CCC[C@@H](c2ncccc2C)N1CCN1CCN(C(=O)c2ccc(-c3cc4c(-c5cccc(NC(=O)c6ccccc6)c5C)ncnc4[nH]3)cc2)CC1` [Compound I-10, N-(3-(6-(4-(4-(2-((2R,6S)-2,6-bis(3-methylpyridin-2-yl)piperidin-1-yl)ethyl)piperazine-1-carbonyl)phenyl)-7H-pyrrolo[2,3-d]pyrimidin-4-yl)-2-methylphenyl)benzamide], the inhibition at 1 µM in [1] is less than 50%; in assay [2] it was less than 50%; in assay [3], less than 50%; in assay [4], less than 50%; in assay [5], less than 50%; in [6] (1 μM, read-out: inhibitor effect on BTK), no less than 90%. In addition, the inhibition at 1 µM in assay [6] (setting [11]) was 90 to 100%; in assay [7] it was 70 to 89%; in assay [8], less than 50%; in assay [9], less than 50%; in assay [10], less than 50%.
With `COc1ccc(F)cc1C(=O)NCc1ccc(-c2nn([C@@H](C)C(F)(F)F)c(N)c2C(N)=O)cc1` [LOXO-305, pirtobrutinib], the inhibition at 1 µM in assay [1] is less than 50%; in assay [2], less than 50%; in assay [3] it was 70 to 89%; in [4] it was less than 50%; in [5] it was less than 50%; in assay [6] (setting [11]) it was 90 to 100%. In addition, the inhibition at 1 µM in assay [7] is 90 to 100%; in [8], less than 50%; in assay [9], 50 to 69%; in [10], less than 50%.
With `C=CC(=O)N1CCC([C@@H]2CCNc3c(C(N)=O)c(-c4ccc(Oc5ccccc5)cc4)nn32)CC1` [Zanubrutinib, (7S)-2-(4-phenoxyphenyl)-7-(1-prop-2-enoylpiperidin-4-yl)-4,5,6,7-tetrahydropyrazolo[1,5-a]pyrimidine-3-carboxamide], the inhibition at 1 µM in assay [1] was less than 50%; in assay [2], less than 50%; in assay [4], less than 50%; in assay [8], 50 to 69%; in [9], less than 50%; in [10], less than 50%. Further, the “INHIBITORY EFFECT @ 1 uM: TEC” value in assay [7] (1 uM) is listed as “++++ (90%-100% Inhibition at 1 uM)”.
